The values below come from ChEMBL document CHEMBL1157539, “Thousands of chemical starting points for antimalarial lead identification” (Nature, 2010).

Where “and” joins values, the source holds several entries; their conditions need not be identical. Equal entries are not always repeated.

The subject of the assay is Plasmodium falciparum. In words: GSK_TCMDC: Inhibition of Plasmodium falciparum 3D7 in whole erythrocytes, using parasite LDH activity as an index of growth. The assay is classed as functional, organism-based.

Regarding `CN(C)C(=O)n1cnc(S(=O)(=O)N(C)c2ccc(Cl)cc2)n1`, the XC50 (Plasmodium falciparum, 3D7) came out at 767 nM.

With `Oc1ccccc1N1CCN(c2ccc(-c3nc4ccccc4[nH]3)cn2)CC1`, the XC50 (Plasmodium falciparum, 3D7) was 1130 nM.

The compound `Cc1cccc2nc(-c3ccc(-c4cccc(CNC(C)C)c4)s3)[nH]c12` came in with an XC50 (Plasmodium falciparum, 3D7) of 231 nM.

For the compound `O=S(=O)(NCCN1CCCC1)c1ccc(-c2cccc(CNCc3ccccc3)c2)s1`, the XC50 (Plasmodium falciparum, 3D7) stood at 806 nM.

With `CCOc1cc(Br)c(C(C)NC(=O)c2cccc(OC)c2)cc1OCC` (centres undefined), for the setting “Plasmodium falciparum, 3D7”, the XC50 was 168 nM.

`Cc1cc(CN2C(=O)C(c3ccccc3)(c3ccccc3)N=C2N)c(C(F)(F)F)o1`: for the setting “Plasmodium falciparum, 3D7”, the XC50 was 956 nM.

Take `CCOc1ccc2c(=NN=Cc3ccc(OC)c(OC)c3)cc(C)[nH]c2c1`: the XC50 (Plasmodium falciparum, 3D7) stood at 700 nM.

For `CC(C)C(C(=O)n1ncc2c3c(N)nc(N)nc3ccc21)C(C)C`, where the note is “Plasmodium falciparum, 3D7”, the XC50 came to 648 nM.

As for `CC1CCN(Cc2c(O)ccc3c(O)c(-c4nc5ccccc5s4)c(=N)oc23)CC1`, for the setting “Plasmodium falciparum, 3D7”, the XC50 is 162 nM.

`Oc1ccc(CN2CCN(CCOC(c3ccc(F)cc3)c3ccc(F)cc3)CC2)cc1Cl`: the XC50 (Plasmodium falciparum, 3D7) was 935 nM.

In turn, `COc1ccc(C(C(=O)NC2CCN(C[C@H](O)c3ccnc4ccc(OC)cc34)CC2)N2CCN(c3ccc(F)cc3)CC2)cc1` (some centres undefined) showed an XC50 (Plasmodium falciparum, 3D7) of 214 nM.

As to `O=C(Nc1cccc(-c2cccc(-c3nc4cc(F)ccc4[nH]3)c2)c1)c1c[nH]cn1`, the XC50 (Plasmodium falciparum, 3D7) was determined as 459 nM.

For the compound `O=C(NC1CCCCN(Cc2ccccc2O)C1)c1cccc(Cl)c1` (centres undefined), the XC50 (Plasmodium falciparum, 3D7) was found to be 1060 nM.

On to `CCOc1cc(C(=O)N[C@@H](Cc2ccccc2)[C@H](O)CNCc2cccc(OC)c2)cc(N2CCCCS2(=O)=O)c1`, for which, under “Plasmodium falciparum, 3D7”, the XC50 is 721 nM.

`N#Cc1ccc2c(c1)CCN(CCC1CCC(NC(=O)c3cc4cccc([N+](=O)[O-])c4[nH]3)CC1)C2` (centres undefined) displayed an XC50 (Plasmodium falciparum, 3D7) of 684 nM.

`CC(CCCC(=O)Nc1ccc(CC(C)NCCc2cccc(Cl)c2)cc1)NCCc1cccc(Cl)c1` (centres undefined): the XC50 (Plasmodium falciparum, 3D7) came to 625 nM.

`COc1cc(Nc2ccnc3cc(-c4ccccn4)ccc23)cc(OC)c1OC` came in with an XC50 (Plasmodium falciparum, 3D7) of 912 nM.

Regarding `O=C(Nc1ccccc1OC(F)(F)F)NC1CCC(CN2CCC(c3c[nH]c4ccccc34)CC2)CC1` (centres undefined), the XC50 was 369 nM and 800 nM.

Where the note is “Plasmodium falciparum, 3D7”, `C=CCOC(=O)N1CCC(CNCc2ccc(-c3ccc(-c4nc5ccccc5[nH]4)s3)cc2)C1` (centres undefined) yielded an XC50 of 229 nM.

In the case of `Cc1nc(-c2ccc(-c3ccc(NC(=O)c4coc5ccc(N6CC(C)NC(C)C6)cc45)cc3)c(C)c2)no1` (centres undefined), the XC50 (Plasmodium falciparum, 3D7) came out at 925 nM.

Regarding `O=C(C1CC1)N1c2ccccc2CCc2ccccc21`, the XC50 (Plasmodium falciparum, 3D7) turned out to be 833 nM.

With `COc1ccc(CNC2CCN(C)CC2)cc1-c1ccc(S(=O)(=O)NC2CCC2)c(C)c1`, the XC50 (Plasmodium falciparum, 3D7) turned out to be 993 nM.

Compound `COc1cc(Cc2cnc(N)nc2N)c2c(c1OC)OC(C)C=C2` (centres undefined) showed an XC50 (Plasmodium falciparum, 3D7) of 1250 nM.

`OCCOCn1cnc2cnc(N[C@H]3OC[C@H](O)[C@@H](O)[C@@H]3O)nc21` had an XC50 (Plasmodium falciparum, 3D7) of 1640 nM.

Turning to `COc1ccc(CN(C)Cc2cc(C(C)C)c(C)cc2O)cc1F`, the XC50 (Plasmodium falciparum, 3D7) amounted to 654 nM.

In turn, `O=C(Nc1cccc(CN2CCCN(Cc3cccc(O)c3)CC2)c1)c1ccc2ccccc2c1` gave an XC50 (Plasmodium falciparum, 3D7) of 786 nM.

Consider `CN1CCCC1CCNc1ncc2c(-c3ccc(NC(=O)Nc4cc(C(F)(F)F)ccc4F)cc3)nn(C)c2n1` (centres undefined), for which the XC50 (Plasmodium falciparum, 3D7) was found to be 344 nM.

For `c1cc(CNCCc2ccncc2)cc(-c2ccc(-c3nc4ccccc4[nH]3)s2)c1`, the XC50 (Plasmodium falciparum, 3D7) turned out to be 336 nM.

`COc1cc2nc(NCCn3ccnc3C)nc(NCCc3ccccc3)c2cc1OC` came in with an XC50 (Plasmodium falciparum, 3D7) of 727 nM.

Take `COCCOc1ccc(Nc2nccc(-c3c(-c4cccc(NC(=O)c5c(F)cccc5F)c4)nn4ccccc34)n2)cc1Cl`: the XC50 (Plasmodium falciparum, 3D7) is 356 nM.

On to `O=C(/C=C/c1ccc(Cl)c(Cl)c1)NCCCCCN1CCC(c2c[nH]c3ccc(O)cc23)CC1`, for which the XC50 (Plasmodium falciparum, 3D7) was 886 nM.

With `Cn1ccnc1S(=O)(=O)CCNCc1ccc(-c2ccc3ncnc(Nc4ccc(OCc5cccc(F)c5)c(Cl)c4)c3c2)o1`, the XC50 (Plasmodium falciparum, 3D7) was found to be 701 nM.

For `COc1ccc2nccc([C@@H](O)CN3CCC(NC(=O)C(c4cc5ccccc5s4)N4CC(C)OC(C)C4)CC3)c2c1` (some centres undefined), where the note is “Plasmodium falciparum, 3D7”, the XC50 is 981 nM.

Where the note is “Plasmodium falciparum, 3D7”, `COc1ccccc1C1CCN(C2CCC(NC(=O)/C=C/c3cc(F)c(F)cc3F)CC2)CC1` (centres undefined) yielded an XC50 of 1600 nM.

Under “Plasmodium falciparum, 3D7”, `COc1ccc(N2CCN(CCCCNC(=O)c3ccc(NC(=O)c4ccc(OC(F)(F)F)cc4)cc3)CC2)c(OC)c1` yielded an XC50 of 578 nM.

For the setting “Plasmodium falciparum, 3D7”, `CCCc1cn2c3c(cc(C(=O)N[C@@H](Cc4ccccc4)[C@H](O)CNC4CCOCC4)cc13)N(CC)S(=O)(=O)CC2` showed an XC50 of 98.8 nM.

For the compound `Cc1ccc2nc(C)n(C3CCN(C(=O)C4(c5ccccc5)CC4)CC3)c2c1`, the XC50 (Plasmodium falciparum, 3D7) is 821 nM.

In turn, `O=C(C=Cc1ccc(F)c(Br)c1)NC1CCC(CN2CCC(c3c[nH]c4ccccc34)CC2)CC1` (centres undefined) came in with an XC50 of 842 nM. In addition, the XC50 (Plasmodium falciparum, 3D7) came out at 789 nM.

For the compound `Cc1cc(N[C@@H](Cc2ccccc2)C(=O)NCc2cccc(F)c2)nc(NCCOc2ccccc2)n1`, the XC50 (Plasmodium falciparum, 3D7) stood at 786 nM.

The compound `CCC(C)NC(=O)CN1CN(c2ccccc2)C2(CCN(C(=O)c3ccc4ccccc4c3)CC2)C1=O` (centres undefined) returned an XC50 (Plasmodium falciparum, 3D7) of 627 nM.

Regarding `O=C(Nc1ccc(Cl)c(C(F)(F)F)c1)Nc1ccc(Cl)c(C(F)(F)F)c1`, under “Plasmodium falciparum, 3D7”, the XC50 amounted to 768 nM.

Under “Plasmodium falciparum, 3D7”, `Cc1nn(C)cc1C(C)Nc1nncc(-c2ccc(C(F)(F)F)cc2)n1` (centres undefined) showed an XC50 of 246 nM.

For the compound `COc1ccc2nccc([C@@H](O)CN3CCC(NC[C@H](Cc4ccccc4)NC(=O)OC(C)(C)C)CC3)c2c1`, the XC50 (Plasmodium falciparum, 3D7) is 228 nM.
